In US6545131B1, “Tissue specific prodrug” (priority 1997, dated 2003):
Starred links: 1 amine or outer side, 2 acyl side, 3 side chain; linkers in the order of their positions; H or OH if unused. Residues, ends and D or L forms follow the SMILES beside them. *: point of attachment. AMC = Cc1cc(=O)oc2cc(N*)ccc12; Morpholide = C1CN(*)CCO1; CO = O=C([*:1])[*:2]

Key:
[1] = target: T1, endoplasmic reticulum Ca2+-ATPase (SERCA), SR vesicles from rabbit skeletal muscle (Oryctolagus cuniculus, UniProt P04191); assay: SERCA inhibition: 45Ca2+ uptake to sarcoplasmic reticulum vesicles; type: biochemical; conditions: mean (n=3) ± standard error; 5 μg/ml SR protein, free Ca2+ 100 nM, 4 min uptake; read-out: IC50 (50% inhibition of 45Ca2+ uptake to SR vesicles)
T1 construct: sarcoplasmic reticulum (SR) vesicles prepared from rabbit skeletal muscle; from tissue; host or cells: rabbit skeletal muscle sarcoplasmic reticulum vesicles
T1 sequence (P04191 1-994 isoform P04191-2): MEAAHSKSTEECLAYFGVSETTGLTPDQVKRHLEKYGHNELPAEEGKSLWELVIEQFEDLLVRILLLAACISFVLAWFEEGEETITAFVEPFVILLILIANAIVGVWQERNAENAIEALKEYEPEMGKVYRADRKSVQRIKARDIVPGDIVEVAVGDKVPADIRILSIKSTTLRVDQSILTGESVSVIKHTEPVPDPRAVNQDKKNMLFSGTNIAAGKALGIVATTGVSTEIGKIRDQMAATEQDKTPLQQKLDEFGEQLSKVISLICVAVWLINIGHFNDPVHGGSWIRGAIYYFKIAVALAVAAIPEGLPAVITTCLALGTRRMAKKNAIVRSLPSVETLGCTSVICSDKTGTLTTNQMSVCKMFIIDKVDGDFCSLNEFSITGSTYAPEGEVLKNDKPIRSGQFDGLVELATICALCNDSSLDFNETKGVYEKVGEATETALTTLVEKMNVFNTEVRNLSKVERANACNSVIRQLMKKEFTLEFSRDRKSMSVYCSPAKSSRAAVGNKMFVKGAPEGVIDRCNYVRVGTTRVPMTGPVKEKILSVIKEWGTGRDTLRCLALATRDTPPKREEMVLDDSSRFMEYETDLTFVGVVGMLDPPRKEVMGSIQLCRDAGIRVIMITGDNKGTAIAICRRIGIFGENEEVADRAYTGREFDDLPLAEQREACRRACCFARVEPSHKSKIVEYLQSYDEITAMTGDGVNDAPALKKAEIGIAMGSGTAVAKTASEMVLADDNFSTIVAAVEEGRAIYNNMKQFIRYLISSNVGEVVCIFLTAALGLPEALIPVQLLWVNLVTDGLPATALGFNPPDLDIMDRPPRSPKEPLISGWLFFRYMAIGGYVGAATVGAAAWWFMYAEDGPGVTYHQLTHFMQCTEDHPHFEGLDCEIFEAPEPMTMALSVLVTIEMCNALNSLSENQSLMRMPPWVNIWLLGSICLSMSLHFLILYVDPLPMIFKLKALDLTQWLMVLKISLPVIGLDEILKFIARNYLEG
Procedure: The primary amine-containing thapsigargin analogs of the invention have endoplasmic reticulum Ca^2+-ATPase inhibitory activity. This activity is measured as the concentration of analog needed to inhibit 50% of this ATPase (IC50). The IC50 of the analogs of the invention is desirably at most 500 nM, preferably at most 200 nM, and more preferably at most 50 nM of analog.
The inhibitory potency of thapsigargin and its analogs was determined as the concentration required to produce 50% inhibition (i.e. IC50) of ^45Ca^2+ uptake to sarcoplasmic reticulum (SR) vesicles prepared from rabbit skeletal muscle by the method of De Meis and Hasselbach (J. Biol. Chem., 246: 4759-4763, 1971). The ^45Ca^2+ uptake assay was as described previously (Christensen, et al., FEBS, 335: 345-348, 1993), with the following modifications: 5 μg/ml of SR protein was incubated at 25EC and free Ca^2+ adjusted to 100 nM using 4 min. uptake time. Under these conditions, Ca^2+ could proceed linearly with time for at least 8 minutes. Measurements of Ca^2+ within TSU cells was determined as described previously (Lin et al., The Prostate, 33:201-207, 1997).
(§1) The IC50 results are mean (n=3)±standard error. The LC50 results are mean (n=5)±standard error. The entry “ND” stands for “not determined”. Clonogenic survival not determined above 10 μM for dBTG. Analogs with −boc have a t-butoxycarbonyl (boc) protected amino group.

TSU-Pr1 cells = assay: Clonogenic survival of TSU-Pr1 cells after 72 hours exposure to TG analogs; type: cell-based, human; conditions: TSU-Pr1, 72 hours exposure; mean (n=5) ± standard error; read-out: LC50 (concentration needed to kill 50% of clonogenic cells)
Procedure: The primary amine-containing thapsigargin analogs of the invention have non-specific toxicity toward cells. This toxicity is measured as the concentration of analog needed to kill 50% of clonogenic cells (LC50). The LC50 of the analogs of the invention is desirably at most 20 μM, preferably at most 5 μM, and more preferably at most 500 nM of analog.
Percentage clonogenic survival of TSU-Pr1 (2×10^5 cells) following 72 hours of exposure to varying concentrations of TG analogs was performed as described in Martikainen et al. Cancer Res., 51, 4693-4700 (1991).
as §1
The androgen responsive PSA-producing LNCaP and androgen independent PSA non-producing TSU-Pr1 are human prostate cancer lines were obtained from ATCC (Rockville, Md.) and maintained by serial passage in RPMI 1640 media containing 10% fetal calf serum with 100 units/ml penicillin G, and 100 units/ml streptomycin sulfate (antibiotics from M.A. Bioproducts, Walkerville, Md.) as standard media in 5% CO2/95% air at 37° C. The origins and characteristics of the LNCaP and TSU-Pr1 cell lines are described in Horoszewicz, et al., Cancer Res., 43:1809-1818, (1980)and Iizumi, et al., J. Urol, 137: 1304-1306, (1987).

[2] = target: T2, PSA (prostate specific antigen) (Homo sapiens, UniProt P07288); assay: Cleavage of AMC-labelled peptide substrates by purified PSA (fluorescence of released AMC; Lineweaver-Burke kinetics); type: biochemical; conditions: 0.2 mM substrate, PSA assay buffer pH 7.8, room temperature
T2 construct: PSA was purified from human seminal plasma; from tissue; host or cells: human seminal plasma
T2 sequence (P07288 25-261): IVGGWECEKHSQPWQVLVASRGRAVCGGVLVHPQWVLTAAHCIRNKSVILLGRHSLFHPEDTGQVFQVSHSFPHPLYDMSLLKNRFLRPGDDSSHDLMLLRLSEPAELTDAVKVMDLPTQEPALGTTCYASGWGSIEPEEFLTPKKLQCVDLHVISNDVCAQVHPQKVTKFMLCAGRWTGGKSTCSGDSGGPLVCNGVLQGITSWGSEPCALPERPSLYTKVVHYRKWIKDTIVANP
Procedure: (§2) The peptides discussed herein were custom synthesized by Enzyme Systems Products (Dublin, Calif.) and, after HPLC separation and purification to >95%, the molecular weights were confirmed by mass spectroscopy. All peptides had morpholinocarbonyl protecting the amino terminus and 7-amino-4-methylcoumarin (AMC) attached via an amide bond to the carboxyl group of the carboxy-terminal amino acid. Peptides were first dissolved in distilled water (5 mM) and then diluted into PSA assay buffer (50 mM Tris/0.1M NaCl pH 7.8). The glutamine-AMC peptide had the amino terminus and side chain amine unprotected and was obtained from Bachem (Torrance, Calif.).
(§3) PSA was purified from human seminal plasma as described in Christensson, et al. Eur. J. Biochem. 194:755-765, (1990). Plasmin, urokinase, tissue plasminogen activator (TPA), human plasma and porcine pancreatic kallikrein and a 1-antichymotrypsin were obtained from Calbiochem (San Diego, Calif.). All other proteases were obtained from Sigma Chemical Co. (St. Louis, Mo.). Mouse serum was obtained from East Acres Biologicals (South Bridge, Mass.). Goat and calf sera were obtained from Gibco BRL (Grand Island, N.Y.). Rat serum was obtained in-house from sacrificed animals. Human serum was obtained from volunteers.
(§4) Cleavage was studied by measuring fluorescence change secondary to AMC release. Fluorescence detection was carried out with a Fluoroskan II 96 well fluorometric plate reader (ICN Biomedicals, Costa Mesa, Calif.), with excitation wavelength 355 nm and emission wavelength 460 nm. Data were collected and analyzed using Deltasoft III software (Biometallics, Princeton, N.J.). All reactions were performed at room temperature by the addition of substrate and proteases into PSA buffer, described below, in a final volume of 200 μL. The results were determined from the initial linear increase of fluorescence and were expressed as the picomoles of AMC released per minute based upon comparison to a standard curve of the fluorescence of known amounts of AMC (i.e., fluorescence was linear form 20 to 300 picomoles of AMC). The data were analyzed by Lineweaver-Burke reciprocal plots to determine the Michaelis-Menten constant (i.e., Km) expressed as the amount of substrate needed to saturate half of the enzyme and the catalytic rate constant (i.e., kcat) expressed as the amount of substrate converted to product per time per amount of enzyme.
(§5) Each assay contains 200 picomoles of the particular protease and 0.2 mM concentration of the particular substrate (i.e., 40,000 picomoles/200 μL of assay volume). The amino acid sequences expressed in one letter amino acid code represent the following amino acid sequences in the three letter amino acid code: EHSSKLQ (Glu-His-Ser-Ser-Lys-Leu-Gln; SEQ ID NO:10), QNKISYQ (Gln-Asn-Lys-Ile-Ser-Tyr-Gln; SEQ ID NO:11), ENKISYQ (Glu-Asn-Lys-Ile-Ser-Tyr-Gln; SEQ ID NO:12), and ATKSKQH (Ala-Thr-Lys-Ser-Lys-Gln-His; SEQ ID NO:13). Determinations listed in the table were carried out with substrates at 0.2 mM concentration in the PSA assay buffer (50 mM Tris/0.1M NaCl pH 7.8). The entry “UD” stands for “undetectable” and means that at most, 0.1 pmole of substrate cleavage per minute per 200 pmole protease took place. Asterisks represent experiments not performed. Abbreviations are as follows: PSA (prostate specific antigen), Chymo (chymotrypsin), Urokin (urokinase), TPA (tissue plasminogen activator), Thromb (thrombin), Kallik (human kallikrein, hK1).
The data in Table 2 are the results of kinetic experiments with the peptide substrates used in Example 1. Experimental details are found in Example 1.
The amino acid sequences expressed in one letter amino acid code represent the following amino acid sequences in the three letter amino acid code: EHSSKLQ (Glu-His-Ser-Ser-Lys-Leu-Gln; SEQ ID NO:10), HSSKLQ (His-Ser-Ser-Lys-Leu-Gln; SEQ ID NO:7), SKLQ (Ser-Lys-Leu-Gln; SEQ ID NO:1), and ATKSKQH (Ala-Thr-Lys-Ser-Lys-Gln-His; SEQ ID NO:13). […]

Elastase = assay: Peptide-AMC cleavage by purified extracellular protease; type: biochemical; conditions: 0.2 mM substrate, PSA assay buffer pH 7.8
Procedure: as §2, §3, §4, §5

Plasmin = target: T3, Plasmin (Homo sapiens, UniProt P00747); assay: as above; type: biochemical; conditions: 0.2 mM substrate, PSA assay buffer pH 7.8
T3 construct: purchased Calbiochem
T3 sequence (P00747 581-810 limits assumed, species assumed): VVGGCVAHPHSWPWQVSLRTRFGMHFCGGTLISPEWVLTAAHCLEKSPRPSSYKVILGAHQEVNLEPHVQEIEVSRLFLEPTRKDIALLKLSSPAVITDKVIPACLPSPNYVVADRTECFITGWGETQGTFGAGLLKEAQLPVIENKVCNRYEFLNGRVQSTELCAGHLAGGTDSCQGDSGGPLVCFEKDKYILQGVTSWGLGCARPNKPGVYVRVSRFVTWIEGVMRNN
T3 sequence (P00747 97-580 partner limits assumed, species assumed): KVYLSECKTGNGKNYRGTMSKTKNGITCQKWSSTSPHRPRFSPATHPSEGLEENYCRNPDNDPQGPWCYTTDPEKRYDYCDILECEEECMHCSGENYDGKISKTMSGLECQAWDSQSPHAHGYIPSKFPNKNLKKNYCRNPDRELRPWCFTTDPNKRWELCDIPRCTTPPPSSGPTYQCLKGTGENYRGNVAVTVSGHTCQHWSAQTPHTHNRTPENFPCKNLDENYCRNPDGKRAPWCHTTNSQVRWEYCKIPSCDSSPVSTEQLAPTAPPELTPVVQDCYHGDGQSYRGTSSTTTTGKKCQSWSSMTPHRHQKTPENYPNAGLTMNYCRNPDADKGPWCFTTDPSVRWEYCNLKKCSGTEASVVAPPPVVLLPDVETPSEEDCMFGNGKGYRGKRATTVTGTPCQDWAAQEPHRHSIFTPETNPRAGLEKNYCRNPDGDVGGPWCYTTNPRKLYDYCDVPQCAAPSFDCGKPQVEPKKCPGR
Procedure: as §2, §3, §4, §5

Trypsin = assay: as above; type: biochemical; conditions: 0.2 mM substrate, PSA assay buffer pH 7.8
Procedure: as §2, §3, §4, §5

chymotrypsin = target: T4, chymotrypsin (Bos taurus, UniProt P00766); assay: as above; type: biochemical; conditions: 0.2 mM substrate, PSA assay buffer pH 7.8
T4 construct: purchased Sigma Chemical Co
Procedure: as §2, §3, §4, §5

human kallikrein, hK1 = assay: as above; type: biochemical; conditions: 0.2 mM substrate, PSA assay buffer pH 7.8
Procedure: as §2, §3, §4, §5

thrombin = target: T5, thrombin (Homo sapiens, UniProt P00734); assay: as above; type: biochemical; conditions: 0.2 mM substrate, PSA assay buffer pH 7.8
T5 construct: purchased Sigma Chemical Co
Procedure: as §2, §3, §4, §5

[3] = target: T6, tissue plasminogen activator (TPA) (Homo sapiens, UniProt P00750); assay: as above; type: biochemical; conditions: 0.2 mM substrate, PSA assay buffer pH 7.8
T6 construct: purchased Calbiochem
T6 sequence (P00750 36-562, species assumed): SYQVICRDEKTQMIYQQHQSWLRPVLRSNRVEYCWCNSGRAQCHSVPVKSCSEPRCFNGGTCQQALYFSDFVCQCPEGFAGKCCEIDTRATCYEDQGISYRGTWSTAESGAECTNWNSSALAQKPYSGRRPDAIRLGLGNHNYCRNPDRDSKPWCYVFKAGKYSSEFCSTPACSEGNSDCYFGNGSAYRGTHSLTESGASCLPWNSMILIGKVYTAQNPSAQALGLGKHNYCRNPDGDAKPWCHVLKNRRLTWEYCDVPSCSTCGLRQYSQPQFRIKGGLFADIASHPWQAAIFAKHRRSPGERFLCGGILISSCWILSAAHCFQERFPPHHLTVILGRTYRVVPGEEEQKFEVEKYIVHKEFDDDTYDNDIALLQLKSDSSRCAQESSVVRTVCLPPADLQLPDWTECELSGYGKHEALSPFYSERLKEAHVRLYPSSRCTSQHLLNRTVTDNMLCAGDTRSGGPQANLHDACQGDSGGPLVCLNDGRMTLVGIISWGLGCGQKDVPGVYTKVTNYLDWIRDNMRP
Procedure: as §2, §3, §4, §5

urokinase = target: T7, urokinase (Homo sapiens, UniProt P00749); assay: as above; type: biochemical; conditions: 0.2 mM substrate, PSA assay buffer pH 7.8
T7 construct: purchased Calbiochem
Procedure: as §2, §3, §4, §5

[4] = Stability of PSA substrates in serum (AMC release); type: in vitro ADME; conditions: 0.2 mM substrate
Excerpt: as §3, §4
Because the prodrug can be given systemically via the blood, it is useful to determine the stability of the substrates in sera from a variety of species. The substrates and experimental details are found as described in Example 1.
The amino acid sequences expressed in one letter amino acid code represent the following amino acid sequences in the three letter amino acid code: EHSSKLQ (Glu-His-Ser-Ser-Lys-Leu-Gln; SEQ ID NO:10), QNKISYQ (Gln-Asn-Lys-Ile-Ser-Tyr-Gln; SEQ ID NO:11), ENKISYQ (Glu-Asn-Lys-Ile-Ser-Tyr-Gln; SEQ ID NO:12) and ATKSKQH (Ala-Thr-Lys-Ser-Lys-Gln-His; SEQ ID NO:13). Determinations listed in the table were carried out with substrates at 0.2 mM concentration in the PSA assay buffer (50 mM Tris/0.1M NaCl pH 7.8). AMC is 7-amino-4-methylcoumarin. The human serum used was 100% for each assay. The entry “UD” stands for “undetectable”, and means that not more than 0.01 picomole of substrate per minute was cleaved.

SMILES	IC50 [1]	CC50 (TSU-Pr1 cells)	Picomoles of substrate cleaved/minute/200 pmoles of indicated protease: PSA [2]	Picomoles of substrate cleaved/minute/200 pmoles of indicated protease: Elastase (Elastase)	Picomoles of substrate cleaved/minute/200 pmoles of indicated protease: Plasmin (Plasmin)	Picomoles of substrate cleaved/minute/200 pmoles of indicated protease: Trypsin (Trypsin)	Picomoles of substrate cleaved/minute/200 pmoles of indicated protease: Chymo (chymotrypsin)	Picomoles of substrate cleaved/minute/200 pmoles of indicated protease: Kallik (human kallikrein, hK1)	Picomoles of substrate cleaved/minute/200 pmoles of indicated protease: Thromb (thrombin)	Picomoles of substrate cleaved/minute/200 pmoles of indicated protease: TPA [3]	Picomoles of substrate cleaved/minute/200 pmoles of indicated protease: Urokin (urokinase)	picomles AMC released/minute: Calf [4]	picomles AMC released/minute: Fetal Calf [4]	picomles AMC released/minute: Goat [4]	picomles AMC released/minute: Mouse [4]	picomles AMC released/minute: Rat [4]	picomles AMC released/minute: Human ([4]; human serum 100%)
CC=C(C)C(=O)OC1C(C)=C2C(C1OC(=O)CCCCCCC)C(C)(OC(C)=O)CC(OC(=O)C=Cc1ccc(N)cc1)C1(O)C2OC(=O)C1(C)O (centres unmarked) [ACT, 8-O-(4-aminocinnamoyl)-8-O-debutanoylthapsigargin]	18.7 ± 0.2 nM	100 ± 6 nM															
CC[C@H](C)[C@H](NC(=O)[C@H](CCCCN)NC(=O)[C@H](CC(N)=O)NC(=O)[C@H](CCC(=O)O)NC(=O)N1CCOCC1)C(=O)N[C@@H](CO)C(=O)N[C@@H](Cc1ccc(O)cc1)C(=O)N[C@@H](CCC(N)=O)C(=O)Nc1ccc2c(C)cc(=O)oc2c1 [ENKISYQ, Glu-Asn-Lys-Ile-Ser-Tyr-Gln] ({Morpholide-CO}-ENKISYQ-{AMC})			14.4 picomoles/minute/200 pmoles pr	2.6 picomoles/minute/200 pmoles pr	0.6 picomoles/minute/200 pmoles pr	1.8 picomoles/minute/200 pmoles pr	3.6 picomoles/minute/200 pmoles pr	UD (at most, 0.1 pmole of substrate cleavage per minute per 200 pmole protease took place)	0.3 picomoles/minute/200 pmoles pr	.04 picomoles/minute/200 pmoles pr	UD (at most, 0.1 pmole of substrate cleavage per minute per 200 pmole protease took place)	UD (not more than 0.01 picomole of substrate per minute was cleaved)	9.59 picomoles/minute	3.18 picomoles/minute	3.71 picomoles/minute	11.2 picomoles/minute	1.27 picomoles/minute
